Assay results reported in US20150141381A1, “TETRACYCLINE COMPOUNDS HAVING TARGET THERAPEUTIC ACTIVITIES” (Paratek Pharmaceuticals, Inc., priority 2001, published 2015).
Like-named read-outs stand apart in the source and are kept apart here.

How the values were obtained:
E. coli mL308 225 = assay: In Vitro Anti-Bacterial Activity Assay (MIC), gram negative; assay type: cell-based; conditions: Escherichia coli, ML308225, 18 h, read-out: Antibiotic Activity Gram −
S. aureus RN450 = assay: In Vitro Anti-Bacterial Activity Assay (MIC), gram positive; assay type: cell-based; conditions: Staphylococcus aureus, RN450, 18 h, read-out: Antibiotic Activity Gram +

SMILES | MIC (E. coli mL308 225; MIC class, Table 3) [µg/mL] | MIC (S. aureus RN450; MIC class, Table 3) [µg/mL] | MIC (E. coli mL308 225) [µg/mL] | MIC (S. aureus RN450) [µg/mL]
CN(C)[C@@H]1C(O)=C(C(N)=O)C(=O)[C@@]2(O)C(O)=C3C(=O)c4c(O)ccc(C#CCCC#Cc5ccc(O)c6c5C[C@H]5C[C@H]7[C@H](N(C)C)C(O)=C(C(N)=O)C(=O)[C@@]7(O)C(O)=C5C6=O)c4C[C@H]3C[C@@H]12 [FM] | > 4 | > 4 |  | 
CN(C)c1ccc(NC(=O)NCc2cc(N(C)C)c3c(c2O)C(=O)C2=C(O)[C@]4(O)C(=O)C(C(N)=O)=C(O)[C@@H](N(C)C)[C@@H]4C[C@@H]2C3)cc1 [FN] | > 4 | < 4 |  | 
CN(C)c1cc(CNC(=O)Nc2ccc(OC(F)(F)F)cc2)c(O)c2c1C[C@H]1C[C@H]3[C@H](N(C)C)C(O)=C(C(N)=O)C(=O)[C@@]3(O)C(O)=C1C2=O [FO] | > 4 | < 4 |  | 
CCCCOCCCNCc1ccc(OC)c(-c2ccc(O)c3c2C[C@H]2C[C@H]4[C@H](N(C)C)C(O)=C(C(N)=O)C(=O)[C@@]4(O)C(O)=C2C3=O)c1 [FR] | < 4 | < 4 |  | 
CN(C)[C@@H]1C(O)=C(C(N)=O)C(=O)[C@@]2(O)C(O)=C3C(=O)c4c(O)c(C(C)(C)C)cc(C(N)C(=O)O)c4C[C@H]3C[C@@H]12 (stereo partly drawn) [FS] | > 4 | > 4 |  | 
CC(C)COC(=O)NCc1ccc(O)c2c1C[C@H]1C[C@H]3[C@H](N(C)C)C(O)=C(C(N)=O)C(=O)[C@@]3(O)C(O)=C1C2=O [FT] | > 4 | < 4 |  | 
CN(C)[C@@H]1C(O)=C(C(N)=O)C(=O)[C@@]2(O)C(O)=C3C(=O)c4c(O)ccc(CNC(=O)OCC(C)(C)C)c4C[C@H]3C[C@@H]12 [FU] | > 4 | < 4 |  | 
CN(C)[C@@H]1C(O)=C(C(N)=O)C(=O)[C@@]2(O)C(O)=C3C(=O)c4c(O)c(I)cc(CN)c4C[C@H]3C[C@@H]12 [FV] | > 4 | > 4 |  | 
CCOC(=O)C(NCc1ccc(OC)c(-c2ccc(O)c3c2C[C@H]2C[C@H]4[C@H](N(C)C)C(O)=C(C(N)=O)C(=O)[C@@]4(O)C(O)=C2C3=O)c1)C(C)C (stereo partly drawn) [FX] | > 4 | < 4 |  | 
COC(=O)C(CC(C)C)NCc1ccc(OC)c(-c2ccc(O)c3c2C[C@H]2C[C@H]4[C@H](N(C)C)C(O)=C(C(N)=O)C(=O)[C@@]4(O)C(O)=C2C3=O)c1 (stereo partly drawn) [FY] | > 4 | < 4 |  | 
CCOC(=O)C(Cc1ccccc1)NCc1ccc(OC)c(-c2ccc(O)c3c2C[C@H]2C[C@H]4[C@H](N(C)C)C(O)=C(C(N)=O)C(=O)[C@@]4(O)C(O)=C2C3=O)c1 (stereo partly drawn) [FZ] | > 4 | < 4 |  | 
COc1ccc(CNCCN(C)C)cc1-c1ccc(O)c2c1C[C@H]1C[C@H]3[C@H](N(C)C)C(O)=C(C(N)=O)C(=O)[C@@]3(O)C(O)=C1C2=O [GA] | > 4 | < 4 |  | 
CC(C)NCc1ccc(-c2ccc(O)c3c2C[C@H]2C[C@H]4[C@H](N(C)C)C(O)=C(C(N)=O)C(=O)[C@@]4(O)C(O)=C2C3=O)c2ccccc12 [GB] | < 4 | < 4 |  | 
COc1ccc(OC(=O)Nc2ccc(-c3ccc(O)c4c3C[C@H]3C[C@H]5[C@@H](N(C)C)C(O)=C(C(N)=O)C(=O)[C@@]5(O)C(O)=C3C4=O)cc2)cc1 [GC] |  |  | > 4 | > 4
CN(C)CC#Cc1cc(C(C)(C)C)c(O)c2c1C[C@H]1C[C@H]3[C@H](N(C)C)C(O)=C(C(N)=O)C(=O)[C@@]3(O)C(O)=C1C2=O [GD] | > 4 | < 4 |  | 
COc1cc(-c2ccc(O)c3c2C[C@H]2C[C@H]4[C@H](N(C)C)C(O)=C(C(N)=O)C(=O)[C@@]4(O)C(O)=C2C3=O)cc(OC)c1OC [GE] | > 4 | < 4 |  | 
COc1ncc(-c2ccc(O)c3c2C[C@H]2C[C@H]4[C@H](N(C)C)C(O)=C(C(N)=O)C(=O)[C@@]4(O)C(O)=C2C3=O)c(OC)n1 [GF] | < 4 | < 4 |  | 
CN(C)C1C(O)=C(C(N)=O)C(=O)[C@@]2(O)C(O)=C3C(=O)c4c(O)ccc(-c5ccc(CN6CCCC6)c6ccccc56)c4C[C@H]3C[C@@H]12 (stereo partly drawn) [GH] | < 4 | < 4 |  | 
